The results in this text go back to the supplement of paper PMC12463676, “Small-molecule dissolution of stress granules by redox modulation benefits ALS models” (Nature Chemical Biology, 2025).

Compound in assay [1]: O=[As]([O-])(O)O.[K+] [potassium arsenate]
In words: thermal stability z-score vs DMSO; higher = more thermally stabilized by treatment. The following applies: HeLa; arsenate concentration 1 mM. The procedure:
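Cellular thermal proteome profiling in HeLa cells treated with 1 mM arsenate for 1 h (DMSO pretreatment), heated to ten temperatures (37-66.3 °C). Soluble protein was quantified by TMT mass spectrometry relative to DMSO controls; the thermal stability score was transformed to a z-score; mean of n = 3 experiments.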

Compound in assay [2]: NC(=O)CCCCC1CCSS1 [lipoamide]
The assay is described as above. The following applies: HeLa, lipoamide concentration 100 µM. The procedure:
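Cellular thermal proteome profiling in HeLa cells. Cells were treated with 100 µM lipoamide for 1 h, with or without 1 mM arsenate for a further 1 h, then heated to ten temperatures (37-66.3 °C), and soluble protein was quantified by TMT mass spectrometry relative to 0.1% DMSO controls. The thermal stability score (sum of log2 fold changes minus the abundance score) was transformed to a z-score; mean of n = 3 experiments.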

Where [3] appears, read: arsenate co-treatment: 1 mM arsenate 1 h.
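Further: each temperature applied for 3 min, abundance score taken as mean log2 fold change at the two lowest temperatures, z-score obtained by mean subtraction and division by SD.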

Sequence of UniProt Q9BPY3 (Q9BPY3 whole entry): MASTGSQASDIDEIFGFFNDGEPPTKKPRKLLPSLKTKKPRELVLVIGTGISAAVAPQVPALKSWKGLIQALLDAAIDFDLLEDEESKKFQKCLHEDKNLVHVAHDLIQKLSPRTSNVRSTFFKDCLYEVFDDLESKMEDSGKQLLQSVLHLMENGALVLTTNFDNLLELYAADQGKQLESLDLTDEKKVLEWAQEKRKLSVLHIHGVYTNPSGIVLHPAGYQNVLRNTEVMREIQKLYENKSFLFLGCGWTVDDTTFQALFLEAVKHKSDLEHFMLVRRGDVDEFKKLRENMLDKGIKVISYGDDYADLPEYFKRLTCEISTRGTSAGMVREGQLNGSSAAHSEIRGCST
Sequence of UniProt Q6P1L5 (Q6P1L5 whole entry): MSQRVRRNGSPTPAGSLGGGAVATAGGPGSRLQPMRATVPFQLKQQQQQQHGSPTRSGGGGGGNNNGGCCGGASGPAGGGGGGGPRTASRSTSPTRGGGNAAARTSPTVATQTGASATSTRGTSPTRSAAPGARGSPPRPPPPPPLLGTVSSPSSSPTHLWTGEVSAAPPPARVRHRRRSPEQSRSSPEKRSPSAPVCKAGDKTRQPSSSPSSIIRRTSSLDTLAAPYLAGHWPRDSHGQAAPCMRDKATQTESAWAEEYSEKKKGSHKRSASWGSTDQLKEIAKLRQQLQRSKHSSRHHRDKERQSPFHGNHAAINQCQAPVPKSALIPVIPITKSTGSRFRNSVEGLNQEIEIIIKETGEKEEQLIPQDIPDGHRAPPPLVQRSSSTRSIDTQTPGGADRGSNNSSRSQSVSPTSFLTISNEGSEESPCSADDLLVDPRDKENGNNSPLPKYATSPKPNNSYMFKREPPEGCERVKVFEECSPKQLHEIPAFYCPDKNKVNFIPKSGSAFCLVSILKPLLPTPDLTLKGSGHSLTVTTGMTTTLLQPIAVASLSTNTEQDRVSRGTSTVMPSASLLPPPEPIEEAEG
Sequence of UniProt Q9Y3D0 (Q9Y3D0 whole entry): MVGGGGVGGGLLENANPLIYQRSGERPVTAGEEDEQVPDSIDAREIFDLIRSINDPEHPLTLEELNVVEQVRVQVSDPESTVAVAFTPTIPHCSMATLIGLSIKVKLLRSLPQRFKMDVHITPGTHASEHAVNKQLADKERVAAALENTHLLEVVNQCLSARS
Sequence of UniProt A6ND36 (A6ND36 whole entry): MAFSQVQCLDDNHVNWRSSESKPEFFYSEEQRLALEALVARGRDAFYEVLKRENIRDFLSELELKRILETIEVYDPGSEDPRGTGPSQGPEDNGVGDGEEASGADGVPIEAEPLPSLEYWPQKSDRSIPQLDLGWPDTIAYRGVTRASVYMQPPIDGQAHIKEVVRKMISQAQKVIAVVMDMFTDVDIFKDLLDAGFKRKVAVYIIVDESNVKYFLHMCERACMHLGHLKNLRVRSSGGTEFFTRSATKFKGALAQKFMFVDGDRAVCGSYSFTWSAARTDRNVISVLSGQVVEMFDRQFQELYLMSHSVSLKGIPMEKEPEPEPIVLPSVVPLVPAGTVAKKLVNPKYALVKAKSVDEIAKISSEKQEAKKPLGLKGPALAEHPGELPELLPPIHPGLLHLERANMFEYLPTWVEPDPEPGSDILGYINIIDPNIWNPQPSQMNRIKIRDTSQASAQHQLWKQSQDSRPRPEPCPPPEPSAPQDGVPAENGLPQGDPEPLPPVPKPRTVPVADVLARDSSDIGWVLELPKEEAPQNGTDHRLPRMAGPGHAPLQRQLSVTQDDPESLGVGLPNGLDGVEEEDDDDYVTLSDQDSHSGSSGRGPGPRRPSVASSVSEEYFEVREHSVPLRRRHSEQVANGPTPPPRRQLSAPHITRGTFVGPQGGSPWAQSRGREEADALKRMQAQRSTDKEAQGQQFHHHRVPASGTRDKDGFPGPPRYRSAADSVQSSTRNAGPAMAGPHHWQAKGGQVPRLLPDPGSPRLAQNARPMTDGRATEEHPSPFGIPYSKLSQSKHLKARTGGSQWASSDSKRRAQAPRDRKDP
Sequence of UniProt Q9H4H8 (Q9H4H8 whole entry): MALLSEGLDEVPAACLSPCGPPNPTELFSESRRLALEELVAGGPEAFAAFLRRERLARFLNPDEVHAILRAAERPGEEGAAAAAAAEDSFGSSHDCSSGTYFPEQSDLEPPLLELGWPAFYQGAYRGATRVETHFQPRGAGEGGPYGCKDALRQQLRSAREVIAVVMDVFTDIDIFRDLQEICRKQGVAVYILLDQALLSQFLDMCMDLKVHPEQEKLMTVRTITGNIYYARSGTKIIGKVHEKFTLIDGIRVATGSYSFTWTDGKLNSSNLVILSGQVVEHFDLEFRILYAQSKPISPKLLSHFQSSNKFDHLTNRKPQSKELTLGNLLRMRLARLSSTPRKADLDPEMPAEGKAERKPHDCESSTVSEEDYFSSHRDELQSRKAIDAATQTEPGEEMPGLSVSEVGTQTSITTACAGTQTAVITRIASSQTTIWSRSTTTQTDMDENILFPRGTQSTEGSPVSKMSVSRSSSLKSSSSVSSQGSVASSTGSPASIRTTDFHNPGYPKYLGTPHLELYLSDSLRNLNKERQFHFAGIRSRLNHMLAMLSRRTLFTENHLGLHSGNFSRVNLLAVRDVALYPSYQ
Sequence of UniProt Q9NUQ9 (Q9NUQ9 whole entry): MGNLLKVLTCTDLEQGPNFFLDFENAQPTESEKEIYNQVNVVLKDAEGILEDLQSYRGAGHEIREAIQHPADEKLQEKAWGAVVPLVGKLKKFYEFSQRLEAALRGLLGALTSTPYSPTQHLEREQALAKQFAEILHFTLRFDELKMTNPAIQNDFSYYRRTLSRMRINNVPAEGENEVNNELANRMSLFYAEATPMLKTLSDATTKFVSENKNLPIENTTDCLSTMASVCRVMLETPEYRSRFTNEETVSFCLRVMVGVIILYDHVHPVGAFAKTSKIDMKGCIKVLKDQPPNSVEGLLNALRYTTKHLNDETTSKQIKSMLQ
Sequence of UniProt Q8NAN2 (Q8NAN2 whole entry): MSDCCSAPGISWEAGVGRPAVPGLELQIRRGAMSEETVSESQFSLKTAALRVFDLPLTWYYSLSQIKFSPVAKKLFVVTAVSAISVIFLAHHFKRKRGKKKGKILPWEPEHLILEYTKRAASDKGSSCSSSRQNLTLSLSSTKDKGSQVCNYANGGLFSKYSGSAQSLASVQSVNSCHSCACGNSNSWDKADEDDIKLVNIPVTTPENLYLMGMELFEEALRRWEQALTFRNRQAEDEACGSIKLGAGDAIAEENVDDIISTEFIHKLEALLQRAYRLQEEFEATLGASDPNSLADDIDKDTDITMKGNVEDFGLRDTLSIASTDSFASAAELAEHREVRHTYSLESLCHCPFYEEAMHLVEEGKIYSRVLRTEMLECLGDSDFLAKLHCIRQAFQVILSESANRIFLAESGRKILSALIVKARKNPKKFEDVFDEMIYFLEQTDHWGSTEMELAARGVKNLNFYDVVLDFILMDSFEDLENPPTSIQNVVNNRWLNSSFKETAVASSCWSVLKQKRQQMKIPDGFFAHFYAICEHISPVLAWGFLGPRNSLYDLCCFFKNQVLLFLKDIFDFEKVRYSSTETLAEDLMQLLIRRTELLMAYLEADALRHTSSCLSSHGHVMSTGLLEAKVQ
Sequence of UniProt Q14320 (Q14320 whole entry): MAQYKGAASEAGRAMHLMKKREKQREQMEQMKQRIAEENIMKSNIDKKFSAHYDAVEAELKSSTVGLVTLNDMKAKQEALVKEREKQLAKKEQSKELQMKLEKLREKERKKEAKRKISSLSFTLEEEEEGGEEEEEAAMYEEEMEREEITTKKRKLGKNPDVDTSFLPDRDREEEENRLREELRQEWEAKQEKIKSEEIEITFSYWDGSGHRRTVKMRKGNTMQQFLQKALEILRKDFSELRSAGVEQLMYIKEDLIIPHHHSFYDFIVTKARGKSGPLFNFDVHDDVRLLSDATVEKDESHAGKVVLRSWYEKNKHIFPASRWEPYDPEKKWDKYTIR
Sequence of UniProt Q9NP50 (Q9NP50 whole entry): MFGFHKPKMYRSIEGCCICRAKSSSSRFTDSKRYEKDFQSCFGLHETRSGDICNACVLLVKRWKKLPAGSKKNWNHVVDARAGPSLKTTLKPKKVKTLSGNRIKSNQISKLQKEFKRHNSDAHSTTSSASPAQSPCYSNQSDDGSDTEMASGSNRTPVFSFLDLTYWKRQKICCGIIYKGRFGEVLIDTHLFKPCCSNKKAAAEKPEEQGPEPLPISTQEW
Sequence of UniProt Q9NRY5 (Q9NRY5 whole entry): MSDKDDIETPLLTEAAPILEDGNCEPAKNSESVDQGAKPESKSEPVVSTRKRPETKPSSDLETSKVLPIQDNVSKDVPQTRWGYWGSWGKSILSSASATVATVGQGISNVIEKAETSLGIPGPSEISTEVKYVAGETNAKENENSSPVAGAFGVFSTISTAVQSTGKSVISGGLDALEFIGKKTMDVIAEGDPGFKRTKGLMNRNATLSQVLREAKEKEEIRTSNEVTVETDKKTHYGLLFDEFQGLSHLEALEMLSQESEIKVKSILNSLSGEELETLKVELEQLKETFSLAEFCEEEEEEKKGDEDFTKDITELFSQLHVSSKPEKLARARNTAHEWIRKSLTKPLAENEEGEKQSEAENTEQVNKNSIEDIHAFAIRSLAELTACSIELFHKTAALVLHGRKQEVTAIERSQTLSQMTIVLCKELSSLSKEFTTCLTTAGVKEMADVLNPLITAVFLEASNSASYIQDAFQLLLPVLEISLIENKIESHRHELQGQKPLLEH
Sequence of UniProt Q52LJ0 (Q52LJ0 whole entry): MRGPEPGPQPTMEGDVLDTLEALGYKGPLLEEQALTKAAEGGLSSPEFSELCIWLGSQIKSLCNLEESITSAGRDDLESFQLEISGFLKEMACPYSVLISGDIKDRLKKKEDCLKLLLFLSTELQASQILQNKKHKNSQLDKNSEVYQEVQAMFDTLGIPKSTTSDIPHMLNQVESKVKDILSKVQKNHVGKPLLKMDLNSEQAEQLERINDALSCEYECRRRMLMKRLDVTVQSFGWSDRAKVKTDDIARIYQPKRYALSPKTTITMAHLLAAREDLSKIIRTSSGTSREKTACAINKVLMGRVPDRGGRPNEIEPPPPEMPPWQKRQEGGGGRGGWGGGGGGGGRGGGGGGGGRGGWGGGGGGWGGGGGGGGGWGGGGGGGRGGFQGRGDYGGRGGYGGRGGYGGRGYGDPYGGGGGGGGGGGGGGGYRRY

On to FAM49B (UniProt Q9NUQ9), for which the thermal stability z-score in assay [1] worked out at 0.0541; in assay [2] (setting [3]) it was 0.4; in assay [2] (arsenate co-treatment: none), 0.0941.
Take FAM50A (UniProt Q14320): the values for the thermal stability z-score in assay [1], in assay [2] (setting [3]) and in assay [2] (arsenate co-treatment: none) were 0.455, -0.0555 and 0.352, respectively.
On to FAM60A (UniProt Q9NP50), for which the thermal stability z-score was -0.681 in assay [1], 0.0806 in assay [2] (setting [3]) and 0.262 in assay [2] (arsenate co-treatment: none).
For FAM65A (UniProt Q6ZS17) the same measures were -0.0314, 0.215 and 0.0539.
The corresponding values for FAM73A (UniProt Q8NAN2) are 0.164, -0.106 and 0.0979.
For FAM83B (UniProt Q5T0W9) the same measures were -2.02, -0.567 and -0.89.
For the target FAM83D (UniProt Q9H4H8), the thermal stability z-score in assay [1] was 0.641; in assay [2] (setting [3]), -0.472; in assay [2] (arsenate co-treatment: none) it was -0.432.
The corresponding values for FAM83G (UniProt A6ND36) are 0.138, -0.123 and 0.00979.
Consider FAM83H (UniProt Q6ZRV2), for which the thermal stability z-score in assay [1] was 0.0326; in assay [2] (setting [3]), -0.0915; in assay [2] (arsenate co-treatment: none), 0.0556.
Consider FAM91A1 (UniProt Q658Y4), for which the thermal stability z-score in assay [1] was -0.0432; in assay [2] (setting [3]) it was -0.0432; in assay [2] (arsenate co-treatment: none) it was -0.00182.
With FAM96A (UniProt Q9H5X1), the figures for the thermal stability z-score in assay [1], in assay [2] (setting [3]) and in assay [2] (arsenate co-treatment: none) were -1.34, -0.0873 and -0.652, respectively.
For FAM96B (UniProt Q9Y3D0) the same measures were -0.128, -0.113 and -0.0578.
For FAM98A (UniProt Q8NCA5) the same measures were -1.6, -0.444 and -0.673.
As for FAM98B (UniProt Q52LJ0), the thermal stability z-score in assay [1] was -1.01; in assay [2] (setting [3]) it was 0.052; in assay [2] (arsenate co-treatment: none), -0.438.
Turning to FAM103A1 (UniProt Q9BTL3), the thermal stability z-score in assay [1] is -0.0441; in assay [2] (setting [3]), 1.17; in assay [2] (arsenate co-treatment: none) it was 0.62.
For the target FAM105A (UniProt Q9NUU6), the figures for the thermal stability z-score in assay [1], in assay [2] (setting [3]) and in assay [2] (arsenate co-treatment: none) were 0.337, -0.00141 and -0.0135, respectively.
Turning to FAM107B (UniProt Q9H098), the thermal stability z-score is 0.327 in assay [1], -0.0721 in assay [2] (setting [3]) and 0.629 in assay [2] (arsenate co-treatment: none).
Turning to FAM111B (UniProt Q6SJ93), the results for the thermal stability z-score in assay [1], in assay [2] (setting [3]) and in assay [2] (arsenate co-treatment: none) were 9.3, 4.69 and 1.31, respectively.
For FAM114A1 (UniProt Q8IWE2), the thermal stability z-score is 0.106 in assay [1], -0.474 in assay [2] (setting [3]) and -0.338 in assay [2] (arsenate co-treatment: none).
The corresponding values for FAM114A2 (UniProt Q9NRY5) are 0.222, -0.354 and -0.328.
The corresponding values for FAM117B (UniProt Q6P1L5) are 0.314, -1.14 and 0.461.
The corresponding values for FAM118B (UniProt Q9BPY3) are 0.57, 0.49 and -0.244.
Turning to FAM120A (UniProt Q9NZB2), the figures for the thermal stability z-score in assay [1], in assay [2] (setting [3]) and in assay [2] (arsenate co-treatment: none) were 0.686, -0.00535 and -0.0221, respectively.
